Earlier results on four molecules are cited in PubChem BioAssay AID1259409 (Chemical Carcinogenesis Research Information System (CCRIS), 2018).

The subject of the data set is rodent chemically induced tumor inhibition, incidence and multiplicity. The experiment in a line: CCRIS tumor inhibitor studies.

Take `COc1ccc(O)cc1`: the “tumour outcome (control, treated, inhibition, significance)” value is reported as 100%, 100%, 0%, not significant (Carcinogen: BENZO[A]PYENE, 50-32-8, Dose [Inhibitor]: 0.028 MMOL/G DIET DAILY FOR 6 WK STARTING 14 D PRIOR TO THE FIRST UNTIL 1 D AFTER LAST CARCINOGEN DOSE FOLLOWED BY AN OB, Route [Inhibitor]: ORAL, Species: MOUSE, Strain/Sex: STRAIN-A/FEMALE, Target Tissue: Type of Lesion: LUNG: ADENOMA, Dose [Carcinogen]: 3 MG IN 0.2 ML COTTONSEED OIL GIVEN 3X AT 2 WK INTERVALS, Promoter: NONE USED); 97%, 100%, -3%, not significant (Carcinogen: BENZO[A]PYENE, 50-32-8, Dose [Inhibitor]: 0.028 MMOL/G DIET DAILY STARTING 2 WK AFTER FINAL CARCINOGEN DOSE THROUGH THE END OF THE STUDY (STUDY DURATION: 14 WK), Route [Inhibitor]: ORAL, Species: MOUSE, Strain/Sex: ICR/FEMALE, Target Tissue: Type of Lesion: FORESTOMACH: PAPILLOMA, Dose [Carcinogen]: 1.5 MG IN 0.2 ML CORN OIL GIVEN 2/WK FOR 4 WK, Promoter: NONE USED); 85%, 46%, 46%, p<0.01 (Carcinogen: BENZO[A]PYRENE, 50-32-8, Dose [Inhibitor]: 0, 3.3 UMOL/G DIET BEGINNING 1 WK PRIOR TO CARCINOGEN TREATMENT AND CONTINUING FOR 1 WK POST CARCINOGEN TREATMENT FOLLOW, Route [Inhibitor]: ORAL, Species: MOUSE, Strain/Sex: CD-1/FEMALE, Target Tissue: Type of Lesion: FORESTOMACH: PAPILLOMA, Dose [Carcinogen]: 1 MG IN 0.2 ML CORN OIL 2/WK FOR 4 WK, Promoter: NONE USED); 100%, 65%, 35%, p 0.053 (Carcinogen: BENZO[A]PYRENE, 50-32-8, Dose [Inhibitor]: 0.03 MMOL/G OF DIET DAILY STARTING 7 D BEFORE AND CONTINUING THROUGH 3 D AFTER CARCINOGEN TREATMENT FOLLOWED BY OBSERVAT, Route [Inhibitor]: ORAL, Species: MOUSE, Strain/Sex: ICR/FEMALE, Target Tissue: Type of Lesion: FORESTOMACH: NEOPLASM, Dose [Carcinogen]: 1 MG IN 0.2 ML CORN OIL 2/WK FOR 4 WK, Promoter: NONE USED); 100%, 41%, 59%, p<0.001 (Carcinogen: BETA-PROPIOLACTONE, 57-57-8, Dose [Inhibitor]: 4.2 MG/G DIET DAILY FOR 14 WK STARTING 12 D PRIOR TO FIRST CARCINOGEN DOSE UNTIL 1 D AFTER LAST CARCINOGEN DOSE FOLLOWED, Route [Inhibitor]: ORAL, Species: MOUSE, Strain/Sex: ICR/FEMALE, Target Tissue: Type of Lesion: FORESTOMACH: PAPILLOMA OR CARCINOMA, Dose [Carcinogen]: 2 MG IN 0.1 ML PROPYLENE GLYCOL 2/WK FOR 12 WK, Promoter: NONE USED); 100%, 61%, 39%, p<0.001 (Carcinogen: BETA-PROPIOLACTONE, 57-57-8, Dose [Inhibitor]: 5.2 MG IN 0.1 ML PROPYLENE GLYCOL 2/WK FOR 12 WK GIVEN 1 HR PRIOR TO EACH CARCINOGEN ADMINISTRATION FOLLOWED BY AN OBSER, Route [Inhibitor]: GAVAGE, Species: MOUSE, Strain/Sex: ICR/FEMALE, Target Tissue: Type of Lesion: FORESTOMACH: PAPILLOMA OR CARCINOMA, Dose [Carcinogen]: 2 MG IN 0.1 ML PROPYLENE GLYCOL 2/WK FOR 12 WK, Promoter: NONE USED). Further, the “tumour outcome (control, treated, inhibition, significance)” value (Carcinogen: BETA-PROPIOLACTONE, 57-57-8, Dose [Inhibitor]: 5.2 MG IN 0.1 ML PROPYLENE GLYCOL 2/WK FOR 12 WK GIVEN 4 HR PRIOR TO EACH CARCINOGEN ADMINISTRATION FOLLOWED BY AN OBSER, Route [Inhibitor]: GAVAGE, Species: MOUSE, Strain/Sex: ICR/FEMALE, Target Tissue: Type of Lesion: FORESTOMACH: PAPILLOMA OR CARCINOMA, Dose [Carcinogen]: 2 MG IN 0.1 ML PROPYLENE GLYCOL 2/WK FOR 12 WK, Promoter: NONE USED) is 97%, 47%, 52%, p<0.001.
`C=CCSC`: the “tumour outcome (control, treated, inhibition, significance)” value (Carcinogen: 7,12-DIMETHYLBENZ[A]ANTHRACENE, 57-97-6, Dose [Inhibitor]: 0, 1.8 MMOL/KG BW IN CORN OIL 96, 48 AND 24 HR PRIOR TO CARCINOGEN TREATMENT (STUDY DURATION: 25 WK), Route [Inhibitor]: GAVAGE, Species: RAT, Strain/Sex: SPRAGUE-DAWLEY/FEMALE, Target Tissue: Type of Lesion: MAMMARY GLAND: ADENOCARCINOMA, Dose [Carcinogen]: 10 MG ONCE, Promoter: NONE USED) is given as 92%, 72%, 22%, p<0.05.
With `CCNC(=O)[C@@H]1CCCN1C(=O)[C@H](CCCN=C(N)N)NC(=O)[C@H](CC(C)C)NC(=O)[C@@H](CC(C)C)NC(=O)[C@H](Cc1ccc(O)cc1)NC(=O)[C@H](CO)NC(=O)[C@H](Cc1c[nH]c2ccccc12)NC(=O)[C@H](Cc1cnc[nH]1)NC(=O)[C@@H]1CCC(=O)N1`, the “tumour outcome (control, treated, inhibition, significance)” value (Carcinogen: N-BUTYL-N-(4-HYDROXYBUTYL)NITROSAMINE, 3817-11-6, Dose [Inhibitor]: 0, 1 MG/KG 1/4 WK FOR 11 WK BEGINNING POST CARCINOGEN TREATMENT (STUDY DURATION: 21 WK), Route [Inhibitor]: SUBCUTANEOUS, Species: RAT, Strain/Sex: WISTAR/MALE, Target Tissue: Type of Lesion: URINARY BLADDER:CARCINOMA, Dose [Carcinogen]: 0.05% IN DRINKING WATER FOR 10 WK, Promoter: NONE USED) was 15/17 (88%), 10/18 (56%), 36%, p<0.05.
Consider `C/C(=C\c1ccc(C(=O)O)cc1)c1ccc2c(c1)C(C)(C)CCC2(C)C`, for which the “tumour outcome (control, treated, inhibition, significance)” value (Carcinogen: 7,12-DIMETHYLBENZ[A]ANTHRACENE, 57-97-6, Dose [Inhibitor]: 0.17 NMOL IN 0.2 ML ACETONE 1 HR PRIOR TO EACH PROMOTER DOSE FOR 12 WK (STUDY DURATION: 14 WK), Route [Inhibitor]: DERMAL, Species: MOUSE, Strain/Sex: SENCAR/FEMALE, Target Tissue: Type of Lesion: SKIN: PAPILLOMA, Dose [Carcinogen]: 200 NMOL IN 0.2 ML ACETONE ONCE, Promoter: 12-O-TETRADECANOYLPHORBOL-13-ACETATE, 16561-29-8) is recorded as 100%, 100%, 0%, not calculated; the “tumour outcome (control, treated, inhibition, significance)” value (Carcinogen: 7,12-DIMETHYLBENZ[A]ANTHRACENE, 57-97-6, Dose [Inhibitor]: 0.17 NMOL IN 0.2 ML ACETONE 1 HR PRIOR TO EACH PROMOTER DOSE FOR 20 WK (STUDY DURATION: 22 WK), Route [Inhibitor]: DERMAL, Species: MOUSE, Strain/Sex: CD-1/FEMALE, Target Tissue: Type of Lesion: SKIN: PAPILLOMA, Dose [Carcinogen]: 200 NMOL IN 0.2 ML ACETONE ONCE, Promoter: 12-O-TETRADECANOYLPHORBOL-13-ACETATE, 16561-29-8) is listed as 94%, 80%, 15%, not calculated; the “tumour outcome (control, treated, inhibition, significance)” value (Carcinogen: 7,12-DIMETHYLBENZ[A]ANTHRACENE, 57-97-6, Dose [Inhibitor]: 1.7 NMOL IN 0.2 ML ACETONE 1 HR PRIOR TO EACH PROMOTER DOSE FOR 12 WK (STUDY DURATION: 14 WK), Route [Inhibitor]: DERMAL, Species: MOUSE, Strain/Sex: SENCAR/FEMALE, Target Tissue: Type of Lesion: SKIN: PAPILLOMA, Dose [Carcinogen]: 200 NMOL IN 0.2 ML ACETONE ONCE, Promoter: 12-O-TETRADECANOYLPHORBOL-13-ACETATE, 16561-29-8) is 100%, 78%, 22%, not calculated; the “tumour outcome (control, treated, inhibition, significance)” value (Carcinogen: 7,12-DIMETHYLBENZ[A]ANTHRACENE, 57-97-6, Dose [Inhibitor]: 1.7 NMOL IN 0.2 ML ACETONE 1 HR PRIOR TO EACH PROMOTER DOSE FOR 20 WK (STUDY DURATION: 22 WK), Route [Inhibitor]: DERMAL, Species: MOUSE, Strain/Sex: CD-1/FEMALE, Target Tissue: Type of Lesion: SKIN: PAPILLOMA, Dose [Carcinogen]: 200 NMOL IN 0.2 ML ACETONE ONCE, Promoter: 12-O-TETRADECANOYLPHORBOL-13-ACETATE, 16561-29-8) is recorded as 94%, 31%, 67%, not calculated; the “tumour outcome (control, treated, inhibition, significance)” value (Carcinogen: 7,12-DIMETHYLBENZ[A]ANTHRACENE, 57-97-6, Dose [Inhibitor]: 17 NMOL IN 0.2 ML ACETONE 1 HR PRIOR TO EACH PROMOTER DOSE FOR 12 WK (STUDY DURATION: 14 WK), Route [Inhibitor]: DERMAL, Species: MOUSE, Strain/Sex: SENCAR/FEMALE, Target Tissue: Type of Lesion: SKIN: PAPILLOMA, Dose [Carcinogen]: 200 NMOL IN 0.2 ML ACETONE ONCE, Promoter: 12-O-TETRADECANOYLPHORBOL-13-ACETATE, 16561-29-8) is 100%, 0%, 100%, not calculated.
